# What was measured:
# [1] = test system: HIV-1 envelope-mediated fusion between HeLa-EnvJR-FL and PM1 cells
# Protocol: HIV-1 envelope-mediated fusion between HeLa-EnvJR-FL and PM1 cells was detected using a Resonance Energy Transfer (RET) assay.
# HIV-1 inhibition data were analyzed according to the Combination Index method of Chou and Talay.
# Equation (1) is a generalized form of the equations describing Michaelis-Menton enzyme kinetics, Langmuir adsorption isotherms, and Henderson-Hasselbalch ionization equilibria, for which m=1 in all cases. In the present case, K is equal to the IC50 value. K and m are determined by curve-fitting the dose-response curves.
# After the best-fit parameters for K and m are obtained for the experimental agents and their combination, Equation (1) is rearranged to allow for calculation of c for a given f.
# All concentrations are those required to achieve a given degree of inhibition. Equation (2) is used when the molecules are mutually nonexclusive, i.e., have different sites of action. Since this is the likely scenario for inhibitors of HIV-1 attachment and gp41 fusion intermediates, Equation (2) was used for all Combination Index calculations. Mutually nonexclusive calculations provide a more conservative estimate of the degree of synergy that mutually exclusive calculations, for which the c1mc2m/c1c2 term is dropped. CI<1 indicates synergy, CI=1 indicates purely additive effects, and CI>1 indicates antagonism. In general, CI values are most relevant at the higher levels of inhibition that are required to achieve a measurable clinical benefit.
# [2] = test system: HIV; details: Phase I/II; cited from earlier work
substance,measurement,setting,value
enfuvirtide,concentration of the individual agent contained in the combination giving 95% inhibition,"[1]; 25:1 CD4-IgG2:T-20 mass ratio, calculated from known mass ratio",0.044 µg/mL
same,Dose Reduction (ratio of inhibitor concentration alone v. in synergistic combination),"[1]; 95% inhibition, 25:1 CD4-IgG2:T-20 mass ratio",5 fold
same,"K, concentration of agent required to produce the median effect (equal to the IC50 value)","[1]; HeLa-EnvJR-FL and PM1 cells, RET after 4 h, mean of three independent experiments, best-fit to median effect equation, FIG. 1",0.017 µg/mL
same,concentration required for inhibition of viral entry by 95%,"[1]; agent used alone, or total concentration of the 25:1 combination, calculated from fitted K and m, FIG. 3",0.21 µg/mL
same,reduction of plasma HIV RNA levels,[2],≤ 2 logs
